From PMC6792352, “Limited Chemical Structural Diversity Found to Modulate Thyroid Hormone Receptor in the Tox21 Chemical Library” (Environmental Health Perspectives, 2019)
Where a name gives a salt, the structure may show the parent alone.

Test: in vitro
Conditions: rat, gh3-tre-luc cells, AC50 (uM) modified / 1000
With CCCCC(CC)COC(=O)CCCCC(=O)OCC(CC)CCCC (centres unmarked) [Bis(2-ethylhexyl)hexanedioate] the CC50 at 24 h was > 90 µM. In the case of C1=CC2C3C=CC(C3)C2C1 (centres unmarked) [Dicyclopentadiene], the CC50 at 24 h is reported as > 90 µM. For CN(C)CCc1c[nH]c2cccc(OP(=O)(O)O)c12 [Psilocybin], the CC50 at 24 h was > 90 µM. For COc1ccc(Cc2nccc3cc(OC)c(OC)cc23)cc1OC [Papaverine hydrochloride], the CC50 at 24 h was > 20 µM. For COc1ccc(C(=O)c2ccc(C)cc2)c(O)c1 [Mexenone], the CC50 at 24 h was > 90 µM. With CC1=CC(=O)CC(C)(C)[C@@]1(O)/C=C/C(C)=C\C(=O)O [Abscisic acid] the CC50 at 24 h was > 90 µM. For CC(C)(C)C(=O)NCCCC(=O)O [Pivagabine], the CC50 at 24 h was > 50 µM. In the case of Nc1ccccc1N [1,2-Phenylenediamine dihydrochloride], the CC50 at 24 h is reported as > 90 µM. For CCCc1c(OCCCOc2ccc(OCC(=O)O)cc2)ccc(C(C)=O)c1O [4-[3-(4-Acetyl-3-hydroxy-2-propylphenoxy)propoxy]phenoxy-acetic acid], the CC50 at 24 h was > 90 µM. For Cc1nnc(C(C)C)n1[C@@H]1C[C@H]2CC[C@@H](C1)N2CC[C@H](NC(=O)C1CCC(F)(F)CC1)c1ccccc1 [Maraviroc], the CC50 at 24 h was > 50 µM. For O[C@H]1[C@H](O)[C@@H](O)[C@H](O)[C@@H](O)[C@H]1O [myo-Inositol], the CC50 at 24 h was > 90 µM. In the case of O=C1CCC(C2CCCCC2)CC1 [4-Cyclohexylcyclohexanone], the CC50 at 24 h is reported as > 90 µM. With Nc1cc([N+](=O)[O-])ccc1C(=O)O [4-Nitroanthranilic acid] the CC50 at 24 h was > 90 µM. Work on CCCCCCCCCCCCCC[n+]1ccc(C)cc1 [Miripirium chloride] yielded a CC50 at 24 h of 7.5 µM. For C=CC(=O)N1CCOCC1 [1-(Morpholin-4-yl)prop-2-en-1-one], the CC50 at 24 h was > 90 µM. In the case of O=C(OCCc1ccccc1)c1ccccc1 [2-Phenylethyl benzoate], the CC50 at 24 h is reported as > 90 µM. In the case of CCCCCCCCCCCCCC=O [Tetradecanal], the CC50 at 24 h is reported as > 5 µM. In the case of Cc1cccc(C)c1NC(=O)c1ccccc1C(=O)O [Ftaxilide], the CC50 at 24 h is reported as > 50 µM. Work on COc1cc(NS(C)(=O)=O)ccc1Nc1c2ccccc2nc2ccccc12 [Amsacrine hydrochloride] yielded a CC50 at 24 h of 0.432 µM. In the case of CC(C)N=C=NC(C)C [Diisopropylcarbodiimide], the CC50 at 24 h is reported as > 90 µM. With O=C1c2ccccc2C(=O)N1CO [2-(Hydroxymethyl)-1H-Isoindole-1,3(2H)-dione] the CC50 at 24 h was > 90 µM. For C=Cc1ccccc1C=C [Divinylbenzene], the CC50 at 24 h was > 400 µM. For CC(C)OC(=O)c1ccccc1C(=O)OC(C)C [Diisopropyl phthalate], the CC50 at 24 h was > 90 µM. For CCN(CC)CCNC(=O)c1cc(Br)c(N)cc1OC [Bromopride], the CC50 at 24 h was > 50 µM. In the case of Clc1ccc(Cl)c(Cl)c1 [1,2,4-Trichlorobenzene], the CC50 at 24 h is reported as > 90 µM. For O=C(O)c1snc(Cl)c1Cl [3,4-Dichloro-5-isothiazolecarboxylic acid], the CC50 at 24 h was > 90 µM. For COCC(C)N(C(=O)CCl)c1c(C)csc1C (centres unmarked) [Dimethenamid], the CC50 at 24 h was > 90 µM. With CC(C1CC1)C(O)(Cn1cncn1)c1ccc(Cl)cc1 (centres unmarked) [Cyproconazole] the CC50 at 24 h was > 90 µM. For C[C@]12C=CC(=O)N[C@@H]1CC[C@@H]1[C@@H]2CC[C@]2(C)[C@@H](C(=O)Nc3cc(C(F)(F)F)ccc3C(F)(F)F)CC[C@@H]12 [Dutasteride], the CC50 at 24 h was > 50 µM. For O=P(O)(O)CCCl [Ethephon], the CC50 at 24 h was > 90 µM. In the case of CO [Methanol], the CC50 at 24 h is reported as > 90 µM. For O=[N+]([O-])c1ccc(CBr)cc1 [4-Nitrobenzylbromide], the CC50 at 24 h was > 100 µM. With CN(C(=O)C(Cl)Cl)c1ccc(OC(=O)c2ccco2)cc1 [Diloxanide furoate] the CC50 at 24 h was > 50 µM. With CC(CO)(CO)C(=O)O [3-Hydroxy-2-(hydroxymethyl)-2-methylpropanoic acid] the CC50 at 24 h was > 90 µM. For CNC(=O)Oc1ccc2c(c1)[C@]1(C)CCN(C)[C@@H]1N2C [Physostigmine], the CC50 at 24 h was > 90 µM. In the case of CC(=O)OCCOCCOCCOC(C)=O [Triethylene glycol diacetate], the CC50 at 24 h is reported as > 90 µM. For CCC(CC)Nc1ccc(C)c(C)c1 [N-(1-Ethylpropyl)-3,4-xylidine], the CC50 at 24 h was > 90 µM. In the case of c1coc(-c2nc3ccccc3[nH]2)c1 [Fuberidazole], the CC50 at 24 h is reported as > 90 µM. With Nc1nc2ncc(CNc3ccc(C(=O)N[C@@H](CCC(=O)O)C(=O)O)cc3)nc2c(=O)[nH]1 [Folic acid] the CC50 at 24 h was > 90 µM. For C[Si](C)O[Si](C)(C)O[Si](C)(C)O[Si](C)C, the CC50 at 24 h was > 90 µM. In the case of CC(C)Nc1nc(N)nc(Cl)n1 [Deethylatrazine], the CC50 at 24 h is reported as > 90 µM. For Oc1ccc(Cc2ccccc2)cc1 [4-Benzylphenol], the CC50 at 24 h was 84.1 µM. For Cc1cccc(C)c1Nc1ncccc1C(=O)O [Metanixin], the CC50 at 24 h was > 50 µM. With C=CC1(C)OC(=O)N(c2cc(Cl)cc(Cl)c2)C1=O (centres unmarked) [Vinclozolin] the CC50 at 24 h was > 90 µM. Fc1ccc(C(c2ccc(F)cc2)N2CCN(C/C=C/c3ccccc3)CC2)cc1 [Flunarizine] showed a CC50 at 24 h of 12.3 µM. For CCC1=C(C)CN(C(=O)NCCc2ccc(S(=O)(=O)NC(=O)N[C@H]3CC[C@H](C)CC3)cc2)C1=O [Glimepiride], the CC50 at 24 h was > 50 µM. In the case of CCOC(=O)CC#N [Ethyl cyanoacetate], the CC50 at 24 h is reported as > 90 µM. For CC(=O)Nc1ccc(S(=O)(=O)Nc2ccc([N+](=O)[O-])cc2)cc1 [Sulfanitran], the CC50 at 24 h was > 50 µM. With CCC1COC(=O)O1 (centres unmarked) [Butylene carbonate] the CC50 at 24 h was > 90 µM. In the case of O=C(NCNC(=O)NC1C(=O)NC(=O)N1CO)NC1C(=O)NC(=O)N1CO (centres unmarked) [Imidazolidinyl urea], the CC50 at 24 h is reported as > 90 µM. CCc1cc(Cc2cc(CC)cc(C(C)(C)C)c2O)c(O)c(C(C)(C)C)c1 [2,2'-Methylenebis(ethyl-6-tert-butylphenol)] gave a CC50 at 24 h of 7.35 µM. For C/C=C/CC#N [3-Pentenenitrile], the CC50 at 24 h was > 90 µM. In the case of CCC(=O)Nc1cccc(N)c1 [N-(3-Aminophenyl)propanamide], the CC50 at 24 h is reported as > 90 µM. In the case of CC(=O)CC(=O)N(C)C [N,N-Dimethylacetoacetamide], the CC50 at 24 h is reported as > 90 µM. In the case of CCCCCCCCCCCCCCCC(=O)NCCO [Palmitoylethanolamide], the CC50 at 24 h is reported as > 50 µM. In the case of Cn1nnnc1SCC1=C(C(=O)O)N2C(=O)[C@@H](NC(=O)[C@H](OC=O)c3ccccc3)[C@H]2SC1 [Cefamandole nafate], the CC50 at 24 h is reported as > 50 µM. For CCCCC(CC)C(=O)OCCOCCOCCOCCOC(=O)C(CC)CCCC (centres unmarked) [Tetraethylene glycol di(2-ethylhexanoate)], the CC50 at 24 h was > 90 µM. In the case of O=C(OCc1ccccc1)c1ccc(O)cc1 [Benzylparaben], the CC50 at 24 h is reported as > 90 µM. With COC(=O)C(C)O (centres unmarked) [Methyl 2-hydroxypropanoate] the CC50 at 24 h was > 90 µM. For CCCCC(CC)COC(=O)c1ccccc1O (centres unmarked) [2-Ethylhexyl salicylate], the CC50 at 24 h was > 50 µM. With CN(C)Cc1cc(CN(C)C)c(O)c(CN(C)C)c1 [2,4,6-Tris(dimethylaminomethyl)phenol] the CC50 at 24 h was > 90 µM. In the case of O=C(O)Cn1c(C(=O)Nc2nc(-c3ccccc3Cl)cs2)cc2ccccc21 [Lintitript], the CC50 at 24 h is reported as > 50 µM. In the case of Oc1nc(Cl)c(Cl)cc1Cl [3,5,6-Trichloro-2-pyridinol], the CC50 at 24 h is reported as > 90 µM. With CC(=O)c1ccc(O)cc1 [4-Hydroxyacetophenone] the CC50 at 24 h was > 90 µM. For CCCCCCCCCCCCCCCCI [1-iodohexadecane], the CC50 at 24 h was > 20 µM.

Same assay, conditions: rat, gh3-tre-luc cells, AC50 (uM) modified / 1000, Tox21_110001=Tox21_111257; viability, 1 nM T3 present, 24 h
In the case of CNC(=O)OCC[N+](C)(C)C [Methylcarbamylcholine chloride], the CC50 at 24 h is reported as > 50 µM.

Same assay, conditions: rat, gh3-tre-luc cells, AC50 (uM) modified / 1000, Tox21_110001=Tox21_200092; viability, 1 nM T3 present, 24 h
For COP(=O)(OC)OC(=CCl)c1cc(Cl)c(Cl)cc1Cl [Tetrachlorovinphos], the CC50 at 24 h was > 100 µM.

Same assay, conditions: rat, gh3-tre-luc cells, AC50 (uM) modified / 1000, Tox21_110001=Tox21_302358; viability, 1 nM T3 present, 24 h
For CN(C)N [1,1-Dimethylhydrazine], the CC50 at 24 h was > 90 µM.
